According to PubChem BioAssay (NCI):
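Tested at 5 concentrations; 48 h exposure; 96-well plates; endpoints linearly interpolated, else capped at highest concentration. GI50 marks 50% less growth. TGI denotes the concentration required for complete inhibition of growth.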

Experiments:
Assay in all cases: DTP human tumour cell line panel, 48 h
[1] = system: HCC-2998 colon
[2] = system: UACC-62 melanoma
[3] = system: RPMI-8226 leukemia
[4] = system: KM12 colon
[5] = system: EKVX NSCLC
[6] = system: BT-549 breast
[7] = system: SK-MEL-28 melanoma
[8] = system: MDA-MB-435

| SMILES | GI50 [1] [µM] | TGI [1] [µM] | GI50 [2] [µM] | TGI [2] [µM] | GI50 [3] [µM] | TGI [3] [µM] | GI50 [4] [µM] | TGI [4] [µM] | GI50 [5] [µM] | TGI [5] [µM] | GI50 [6] [µM] | TGI [6] [µM] | GI50 [7] [µM] | TGI [7] [µM] | GI50 [8] [µM] | TGI [8] [µM] |
| --- | --- | --- | --- | --- | --- | --- | --- | --- | --- | --- | --- | --- | --- | --- | --- | --- |
| CC1(C)[C@@H](OC(N)=O)[C@H]2O[C@H]2[C@]2(C=O)[C@H]3CC[C@]4(C)[C@@H](c5ccc(=O)oc5)[C@@H](Cl)C[C@]4(O)C3=CC[C@@H]12 | 0.00815 | 0.0342 | 0.00614 | 0.0172 | 0.00795 | 0.034 | 0.00806 | 0.0253 | 0.00472 | 0.0102 | 0.00501 | 0.0103 | 0.00794 | 0.0268 | 0.00704 | 0.0187 |
| O=C1NC(=O)C(CC2CCCCCCCCCCC2=O)C(=O)N1 (configuration not stated) |  | > 100 |  | > 100 |  |  |  | > 100 |  | > 100 |  | > 100 |  | > 100 |  | > 100 |
| O=C1CSC(c2ccc(Cl)cc2Cl)N1c1ccc(F)cc1 (configuration not stated) | 17.6 | 31.5 | 16.2 | 30.5 | 19.5 | 42.7 | 15.6 | 29.8 | 17.6 | 34.8 | 18 | 32.3 |  |  | 20.8 | 43 |
| CC(=O)C(=CN1CCN(C(=O)c2ccco2)C1=S)C(C)=O |  |  | 5.52 | 19.1 | 2.74 | > 100 | 2.83 | 9.72 | 11.2 | 28.6 | 14 | 30.1 | 3.94 | 25.8 | 12.6 | 49 |
| COc1ccc(C(=O)COc2ccc(/C=C3\COc4ccc(OC)cc4C3=O)cc2)cc1 |  |  | 48.9 | > 100 | 3.47 | 22.6 | 8.72 | 85.8 | 41.2 | > 100 | 16.2 | 35.8 | 19.9 | 56.9 | 6.46 | 78.5 |
| COc1cc2[nH]c(C(=O)c3cc(OC)c(OC)c(OC)c3)c(N)c2cc1C#CC1CC1 | 20.1 | > 100 | 20.1 | > 100 | 3.28 | 42.5 | 2.51 | > 100 |  |  |  |  | 7.52 | > 100 | 0.332 | 1.17 |
| Clc1ccc(C=Nc2ccc3c(c2)Cc2ccccc2-3)c(Cl)c1 |  |  |  | > 100 |  | > 100 |  | > 100 |  | > 100 |  | > 100 |  | > 100 |  | > 100 |
| CC(CO)(CO)NCCCCn1ccc2c1C(=O)c1c(c(O)c3ccccc3c1O)C2=O | 6.2 | 20.9 |  |  |  |  | 1.4 | 2.7 | 17.8 | 44.5 | 19.9 | 51.2 |  |  | 1.76 | 3.56 |
| O=C1Nc2ccc(F)cc2/C1=C/c1ccc[nH]1 | > 22.1 | > 25 | > 25 | > 25 | > 25 | > 25 | 0.787 | > 25 |  |  | > 18.8 | > 25 | > 25 | > 25 | > 25 | > 25 |
| CC(C)C[C@H](NC(=O)/C=C/Cn1ccc2ccccc2c1=O)B(O)O | 4.38 | 14.2 | 3.35 | 14.9 | 0.845 | > 100 | 4.54 | 19 |  |  | 2.67 | 13.7 | 3.85 | 36 | 1.48 | 2.96 |
| CC1=C[C@H]2c3c(c(O)c(O)c4oc(-c5ccccc5)cc(=O)c34)[C@H](c3cc(O)c(O)c4oc(-c5ccccc5)cc(=O)c34)[C@H]2C(C)(C)C1 | 1.56 | 4.65 | 0.516 | 1.97 |  |  | 1.41 | 8.96 | 1.14 | 11.4 | 1.58 | 8.59 | 1.12 | 9.51 | 0.435 | 5.74 |
| CN(CCC#N)c1ccc(/C=C(\C#N)c2ccc(Br)cc2)cc1 |  |  |  |  |  |  | 3.7 | > 100 |  |  | > 100 | > 100 | > 100 | > 100 | 1.97 | > 100 |
| COc1ccc(/C=C/C(=O)C(CC2CCC2)C(=O)/C=C/c2ccc(OC)c(OC)c2)cc1OC | 1.85 | 3.41 |  |  | 1.73 | 6.4 | 2.22 | 6.66 | 2.73 | 9.9 | 1.54 | 4.04 | 2.16 | 5.39 | 1.49 | 3.15 |
| COc1cc(/C=C/c2ccc(OC)c(OC)c2)cc(OC)c1 |  |  |  | 63.5 |  | > 100 |  | 40.6 |  | > 100 |  | 72.3 |  | > 100 |  | > 100 |
| COc1c(CCl)cc(-c2cc(=O)c3ccccc3s2)cc1CCl |  |  |  | > 100 |  | > 100 |  | > 100 |  | > 100 |  | > 100 |  | > 100 |  | > 100 |
| Nc1ccn(C2CCC(CO)O2)c(=O)n1 (configuration not stated) | > 1000 | > 1000 | > 1000 | > 1000 | > 1000 | > 1000 | > 1000 | > 1000 | > 1000 | > 1000 |  | > 1000 |  |  |  | > 1000 |
| CC(C)(C[C@H]1CN(S(=O)(=O)c2cccc(C(F)(F)F)c2)c2cc(-c3cc(F)cc(OC(F)F)c3)ccc2O1)C(=O)O | 10.1 | 24.4 |  |  | 3.45 | 17.6 | 4.38 | 16.4 | 5.25 | 19.3 | 5.9 | 22.3 | 10.9 | 24.4 | 2.44 | 7.58 |
| COc1cc(/C=C/c2cc(/C=C/c3ccc(O)c(OC)c3)n(C(=O)Nc3ccc(C)cc3C)n2)ccc1O | 0.738 | 4.26 | 0.412 | 1.65 | 0.352 | 1.74 |  |  | 0.995 | 5.76 | 0.693 | 16.8 | 0.509 | 2.46 |  |  |
| COc1ccc(CCN2COc3c([C@@H](C)CCC=C(C)C)ccc(C)c3C2)cc1OC | 1.59 | 2.96 | 3.48 | 14.6 | 2.09 | 7.67 | 2.86 | 9.64 | 5.14 | 25.4 |  |  | 2.21 | 4.94 | 3.11 | 10.9 |
| O=c1cccc(C#CC#CC2=CCCCC2)o1 |  |  | 2.87 | 8.56 | 2.19 | 5.83 | 5.84 | 13.6 | 10.2 | 25.8 | 2.57 |  | > 29.9 | > 52.6 | 4 | 10.4 |
| CCCCCCCCCCCCCCCCCCOc1ccccc1CC(=O)OCC[N+]1(C)CCCC1 |  |  | 1.63 | 3.33 |  |  | 1.88 | 3.49 | 3.38 | 16.4 | 2.59 | 6.95 | 2.72 | 7.86 | 1.73 | 3.31 |
| Nc1ccc(-c2nc3ccc(Cc4ccc5nc(-c6ccc(N)cc6)[nH]c5c4)cc3[nH]2)cc1 | 2.84 | 12.1 | 3.59 | 17.8 | 25.7 | > 100 | 1.37 | 3.05 |  |  | 9.86 | 67.2 | 1.93 | 4.27 | 1.45 | 3.67 |
| CCn1c(-c2ccc(OC(C)=O)cc2)c(C)c2cc(OC(C)=O)ccc21 |  |  |  | 28.3 |  | 42.6 |  | 36.8 |  | 71.4 |  | 88.8 |  | 59.1 |  | 33.7 |
| O=c1cc(NC2CCN(CCCc3ccccc3)CC2)c2cc(Cl)ccc2o1 | 13 | 27.3 | 15.1 | 29.8 | 16.5 | 43.4 | 12.5 | 25 |  |  | 12.9 | 26.8 | 11.1 | 23.9 | 5.26 | 18.1 |
| O=C(/C=C\c1ccc(NCc2ccc(C(=O)O)cc2)cc1)CCl |  |  |  |  | 9.07 | 35.3 | 17 | 32 |  |  | 7.95 | 21.5 | 16.8 | 31.4 | 15.8 | 31.9 |
| C1CCC([PH+](C2CCCCC2)C2CCCCC2[PH+](C2CCCCC2)C2CCCCC2)CC1.O=C(C1[CH-]CCCC1)C1CCCC[N-]1.[Au] (configuration not stated) |  |  | 0.226 | 0.835 |  |  |  |  |  |  | 0.261 | 1.5 |  |  | 0.229 | 0.704 |
| O=C1CC2c3ccccc3CCC2c2ccccc21 (configuration not stated) |  | 50.5 |  | 69.6 |  | > 100 |  | 26.8 |  | 15.3 |  |  |  | > 100 |  | 98.6 |
| C[C@]12CC[C@@H]3c4cc(OCC(F)(F)F)c(O)cc4/C(=N/O)C[C@H]3[C@@H]1CC[C@@H]2O |  | 11.4 | 0.0243 | 17.7 | 0.0584 | 2.33 |  | 11.2 |  | 28.9 |  |  | 0.0637 | 25.9 |  | 0.0465 |
